From US20220287938A1, “COSMETIC COMPOSITION COMPRISING EUTECTIC MIXTURE” (LG HOUSEHOLD & HEALTH CARE LTD., priority 2019, published 2022) come the findings set out here.

Data set [1] relates to HaCaT cells. The data set is described as follows: Scratch wound healing (skin regeneration promotion). Type of data set: cell-based, human. On the procedure:
HaCaT cells, which are a human-derived keratinocyte cell line, were cultured under conditions of 37° C. and 5% CO2 using a DMEM medium (ADDEXBIO TECHNOLOGIES, San Diego, Calif., USA) supplemented with 10% fetal bovine serum (Gibco, Waltham, Mass., USA), […] and […]. After the cultured cells were seeded into a 24-well plate so as to have 2.0×10^5 cells per well, and then cultured for 24 hours, the cells were washed once with PBS, and scratches having a perpendicular line shape were created on the center of the plate by scraping the cells with a 200 μl pipet tip. The cells were washed twice with PBS to remove the dropped cell debris, and the medium was replaced with a […] DMEM containing each test material. In order to always capture the same part when the cells were photographed, the center of the well was marked with a fine marker and the cell photograph of the marked part was taken at the same time at the start of the experiment (0 hours). The cell photographs after 2, 4 and 24 hours were also taken in the same way. After a scratch area created on monolayer cells was measured from the photographs after 0 hours and 24 hours using an image analysis program (Image J), the area filled with the scratch area was shown as a wound healing percentage (%) according to the following General Formula 1.

Data set [2] concerns human fibroblasts. The data set is described as follows: Total amount of collagen produced (PICP EIA kit). Type of data set: cell-based. The settings on record: for Average absorbance: 450 nm, number of repeats=3; for Collagen increase rate (%): relative to control (no additive). How it is done:
The total amount of collagen was quantified using a PICP kit (Procollagen Type I C-Peptide Enzyme ImmunoAssay KIT).
Specifically, after each sample was added to the culture medium of human fibroblasts and cultured for 1 day, the culture medium was taken, and a degree of increase in the total amount of collagen at each concentration was measured at 450 nm using a spectrophotometer with the PICP EIA kit.

Data set [3] is described as follows: Skin permeability on pig skin (serine quantified by liquid chromatography). Type of data set: in vitro ADME. The settings on record: pH 6.0 (mixtures adjusted to weakly acidic using citric acid); serine 5 parts by weight. On the procedure:
10 μg of each of the aqueous solutions of Comparative Examples 1 and 2 and Example 1 were prepared and applied to pig skin having a uniform area. A tissue soaked with phosphate buffered saline (PBS) was placed on a 6-well plate and stored with the pig skin placed on the tissue under conditions of a temperature of 37° C. and a humidity of 50% for 12 hours. Then, the sample that could not penetrate the skin was removed using a cotton swab and a keratin tape, and the weight of the pig skin was measured. After the pig skin was crushed using a homogenizer, the amino acid and the eutectic mixture in the sample were sufficiently dissolved by adding 1 ml of water thereto, and then the resulting solution was centrifuged at 12,000 rpm for 10 minutes. After centrifugation, 0.5 ml of the supernatant was collected, and the serine concentration of the sample, which would be the amount permeated through the skin, was quantified using liquid chromatography with standard samples, and then transmittance was obtained by dividing the quantified concentration by the weight of the pig skin and comparing this to the initially introduced serine mass, as serine amount per gram of the tissue. The results of the skin permeability are illustrated in FIG. 2.
The skin permeability of the eutectic mixture prepared in Experimental Example 12 was confirmed. […]

The test system of data set [4] is back skin of a pig. In words: Keratin exfoliation effect on pig back skin (exfoliated keratin counted with cell counter). On the procedure:
In order to confirm the keratin exfoliation effect of the aqueous eutectic mixture solution by the serine concentration of Example 2, the back skin of a pig was treated with the aqueous solution. Specifically, a 6-mm diameter sample with a thickness of 1 mm was taken from the back skin of the pig using a biopsy tool. After the sample was placed on a 96-well plate and washed once with phosphate buffered saline (PBS), 100 μl of the aqueous eutectic mixture solution of Example 2 was added thereto. In this case, to compare the keratin exfoliation effects, 100 μl of Comparative Example 4, a solution containing serine and malic acid, was added to the back skin of a pig in the same manner as described above. After the pig's back skin sample treated with each aqueous solution was stored under conditions of a temperature of 37° C. and humidity of 50% for 16 hours, the keratin exfoliation effect was confirmed by measuring the number of exfoliated keratin with a cell counter. In this case, a sample to which water was added was used as a negative control, a sample to which 10% gluconolactone (polyhydroxy acid, PHA) with a pH of 4, which is a known keratin exfoliating substance, was added was used as a first positive control, and a sample to which 10% gluconolactone with a pH of 6 was added was used as a second positive control. In the case of the second positive control, the keratin exfoliation effect was evaluated based on the condition that the efficacy was 15 to 20% compared to the first positive control. Here, the first positive control is applied as a reference for comparing the values between the actual experimental examples, and a relative keratin exfoliation value (%) was calculated and described as [(result value of sample)/(value of first positive control group)×100]. […]
Furthermore, it was confirmed whether the eutectic mixture was dissociated by observing the properties of a cosmetic (essence) including the eutectic mixture of Example 12, which was allowed to stand under separation conditions of the eutectic composition (Table 27) and confirming changes in melting point through measurement by differential scanning calorimetry (DSC) (Table 28) and the keratin exfoliation effect (Table 29), of the cosmetic. […] The melting point is expressed as a heat flow with respect to the sample in the DSC, and its accuracy is known to be 0.01° C. The melting point was measured in a pure nitrogen atmosphere, nitrogen was fed into a measuring chamber at a rate of 20 cc/min in order to maintain the nitrogen atmosphere, and the temperature of the chamber was set so as to increase by 10° C. per minute. The mass of the measured sample was confirmed by subtracting the weight of a pan for accommodating the sample in the DSC from the weight including the entire sample. […]

Take `N=C(N)NCCC[C@H](N)C(=O)O` [Arg, arginine]: the “Wound healing percentage (%) after 24 hours” value in data set [1] (10 ppm (mixtures based on the concentration of arginine)) stood at 73.5%. In data set [2] (10 ppm, cultured for 1 day), this compound had an Average absorbance of 2.429. Besides, the “Collagen increase rate (%)” value in data set [2] (10 ppm) is 19.3%.

For TGF-β, in data set [2] (10 ng/ml (positive control)), the Average absorbance is 2.335 and the “Collagen increase rate (%)” value came to 14.7%.

On to `N[C@@H](CO)C(=O)O` [Serine, serine], for which, in data set [3], the “Skin permeability relative value (Maximum value converted to 100%)” value stood at 71.7%.

`O=C1O[C@H](CO)[C@@H](O)[C@H](O)[C@H]1O` [PHA, gluconolactone]: the “Keratin exfoliation relative value (%)” value in data set [4] (pH 4.0, 10% gluconolactone, first positive control (reference = 100)) is recorded as 100%; in data set [4] (pH 4.0, first positive control (reference = 100)) it was 100%; in data set [4] (pH 6.0 (mixtures adjusted to weakly acidic using citric acid)), 25.5%; in data set [4] (pH 6.0, 10% gluconolactone, second positive control), 18.8%.

As to `N[C@@H](CCC(=O)O)C(=O)O` [Glu, glutamic acid], in data set [1] (1 ppm), the “Wound healing percentage (%) after 24 hours” value is 70.1%. Further, in data set [2] (10 ppm, cultured for 1 day), the Average absorbance is 2.240. Also, the “Collagen increase rate (%)” value in data set [2] (10 ppm) is listed as 10.0%.
